This is an account of results in US20240408085A1, “COMPOUND FOR DEGRADATION OF BCL-2 FAMILY PROTEINS AND MEDICAL APPLICATION THEREOF” (XIZANG HAISCO PHARMACEUTICAL CO., LTD., priority 2021, published 2024).

In one experiment the target is T1, BCL-xL proteins (Homo sapiens, UniProt Q07817).
T1 construct: degradation effect on the BCL-xL proteins in MOLT-4 cells; host or cells: MOLT-4
Briefly: BCL-xL degradation activity in MOLT-4 cells (western blot, 16 h). It counts as cell-based. The protocol:
MOLT-4 cells are acute lymphoblastic leukemia cell lines in humans. The cells were purchased from ATCC. Culture conditions: RPMI-1640+10% FBS+1% penicillin-streptomycin solution. The cells were cultured in a 37° C., 5% CO2 incubator. The cells were plated in a 12-well plate, with 2×10^5 cells/well. After plating, compounds at different concentrations were added and cultured in a 37° C., 5% CO2 incubator for 16 h. After the completion of culture, the cells were harvested and RIPA lysis buffer (beyotime, Cat. P0013B) was added. The cells were lysed on ice for 15 minutes and centrifuged at 12000 rpm at 4° C. for 10 minutes. The supernatant protein samples were collected and the protein was quantified by using the BCA kit (Beyotime, Cat. P0009). Then the protein was diluted to 0.8 mg/mL. The expressions of BCL-xL (CST, Cat. 2764S), BCL-2 (CST, Cat. 15071S) and the internal reference β-actin (CST, Cat. 3700S) were detected using a fully automated western blot quantitative analyzer (Proteinsimple). The expression level of BCL-xL or BCL-2 relative to the internal reference was calculated by using Compass software, and the DC50 value was calculated by using GraphPad Prism 8.0 software according to formula (1), wherein the Proteinadministration denoted the relative expression level of BCL-xL or BCL-2 in administration groups at different doses, and the Proteinvehicle denoted the relative expression level of BCL-xL or BCL-2 in the vehicle control group.
Protein %=Proteinadministration/Proteinvehicle×100% formula (1)

The test system of the next experiment is MOLT-4 cells. Briefly: Cell proliferation activity in MOLT-4 cells (72 h, cell viability luminescence). Format: cell-based, human. To be noted: Homo sapiens, read-out: IC50 for the inhibition of MOLT-4 cell proliferation. The procedure, abridged:
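Human acute lymphoblastic leukemia cells were seeded at 5×10^3 cells/well in RPMI-1640 with 10% FBS. They were treated with serially varied compound concentrations for 72 h at 37° C., 5% CO2. A luminescent viability reagent was used for read-out. IC50 was derived relative to vehicle control; maximum inhibition was the inhibition rate at the highest concentration.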

T1 sequence (Q07817 whole entry): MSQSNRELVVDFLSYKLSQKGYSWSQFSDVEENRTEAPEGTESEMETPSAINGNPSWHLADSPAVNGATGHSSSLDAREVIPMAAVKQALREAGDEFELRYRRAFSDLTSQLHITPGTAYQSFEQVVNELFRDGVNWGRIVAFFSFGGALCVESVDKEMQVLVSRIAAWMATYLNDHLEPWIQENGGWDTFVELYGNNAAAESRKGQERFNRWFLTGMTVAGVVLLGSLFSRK

Usually DC50 stands for the concentration giving 50% degradation. A low value points to a more potent degrader. On BCL-xL proteins, `Cc1ncsc1-c1ccc([C@H](C)NC(=O)[C@@H]2C[C@@H](O)CN2C(=O)[C@@H](NC(=O)CCCCCC(=O)N2C[C@H]3C[C@@H]2CN3CC[C@H](CSc2ccccc2)Nc2ccc(S(=O)(=O)NC(=O)c3ccc(N4CCN(CC5=C(c6ccc(Cl)cc6)CCC6(CC6)C5)CC4)cc3)cc2S(=O)(=O)C(F)(F)F)C(C)(C)C)cc1` [Compound 19, (2S,4R)-1-((S)-2-(7-((1R,4R)-5-((R)-3-((4-(N-(4-(4-((6-(4-chlorophenyl)spiro[2.5]oct-5-en-5-yl)methyl)piperazin-1-yl)benzoyl)sulfamoyl)-2-((trifluoromethyl)sulfonyl)phenyl)amino)-4-(phenylthio)butyl)-2,5-diazabicyclo[2.2.1]heptan-2-yl)-7-oxoheptanamido)-3,3-dimethylbutanoyl)-4-hydroxy-N—((S)-1-(4-(4-methylthiazol-5-yl)phenyl)ethyl)pyrrolidine-2-carboxamide] returned a DC50 of 10.7 nM. Moreover, the IC50 with MOLT-4 cells was less than 500 nM.
Consider `Cc1ncsc1-c1ccc([C@H](C)NC(=O)[C@@H]2C[C@@H](O)CN2C(=O)[C@@H](NC(=O)CCCC(=O)N2C[C@H]3CN(CC[C@H](CSc4ccccc4)Nc4ccc(S(=O)(=O)NC(=O)c5ccc(N6CCN(CC7=C(c8ccc(Cl)cc8)CCC(C)(C)C7)CC6)cc5)cc4S(=O)(=O)C(F)(F)F)C[C@H]3C2)C(C)(C)C)cc1` [Compound 15, cis-(2S,4R)-1-((S)-2-(5-(5-((R)-3-((4-(N-(4-(4-((4′-chloro-4,4-dimethyl-3,4,5,6-tetrahydro-[1,1′-biphenyl]-2-yl)methyl)piperazin-1-yl)benzoyl)sulfamoyl)-2-((trifluoromethyl)sulfonyl)phenyl)amino)-4-(phenylthio)butyl)hexahydropyrrolo[3,4-c]pyrrol-2(1H)-yl)-5-oxopentanamido)-3,3-dimethylbutanoyl)-4-hydroxy-N—((S)-1-(4-(4-methylthiazol-5-yl)phenyl)ethyl)pyrrolidine-2-carboxamide], for which the DC50 at BCL-xL proteins amounted to 3.6 nM. Also, the IC50 in the experiment with MOLT-4 cells was less than 500 nM.
As to `Cc1ncsc1-c1ccc([C@H](C)NC(=O)[C@@H]2C[C@@H](O)CN2C(=O)[C@@H](NC(=O)CCCCCC(=O)N2CCN(CC[C@H](CSc3ccccc3)Nc3ccc(S(=O)(=O)NC(=O)c4ccc(N5CCN(CC6=C(c7ccc(Cl)cc7)CCC7(CC7)C6)CC5)cc4)cc3S(=O)(=O)C(F)(F)F)CC2)C(C)(C)C)cc1` [Compound 11, (2S,4R)-1-((S)-2-(7-(4-((R)-3-((4-(N-(4-(4-((6-(4-chlorophenyl)spiro[2.5]oct-5-en-5-yl)methyl)piperazin-1-yl)benzoyl)sulfamoyl)-2-((trifluoromethyl)sulfonyl)phenyl)amino)-4-(phenylthio)butyl)piperazin-1-yl)-7-oxoheptanamido)-3,3-dimethylbutanoyl)-4-hydroxy-N—((S)-1-(4-(4-methylthiazol-5-yl)phenyl)ethyl)pyrrolidine-2-carboxamide], the DC50 on BCL-xL proteins came out at 5.3 nM. In addition, the IC50 in the experiment on MOLT-4 cells is less than 500 nM.
Take `Cc1ncsc1-c1ccc([C@H](C)NC(=O)[C@@H]2C[C@@H](O)CN2C(=O)[C@@H](NC(=O)CCCCCCCC(=O)N2C[C@H]3CN(CC[C@H](CSc4ccccc4)Nc4ccc(S(=O)(=O)NC(=O)c5ccc(N6CCN(CC7=C(c8ccc(Cl)cc8)CCC(C)(C)C7)CC6)cc5)cc4S(=O)(=O)C(F)(F)F)C[C@H]3C2)C(C)(C)C)cc1` [Compound 16, cis-(2S,4R)-1-((S)-2-(9-(5-((R)-3-((4-(N-(4-(4-((4′-chloro-4,4-dimethyl-3,4,5,6-tetrahydro-[1,1′-biphenyl]-2-yl)methyl)piperazin-1-yl)benzoyl)sulfamoyl)-2-((trifluoromethyl)sulfonyl)phenyl)amino)-4-(phenylthio)butyl)hexahydropyrrolo[3,4-c]pyrrol-2(1H)-yl)-9-oxononanamido)-3,3-dimethylbutanoyl)-4-hydroxy-N—((S)-1-(4-(4-methylthiazol-5-yl)phenyl)ethyl)pyrrolidine-2-carboxamide]: the IC50 in the experiment on MOLT-4 cells is less than 500 nM.
The same measure, in the same setting: then `Cc1ncsc1-c1ccc([C@H](C)NC(=O)[C@@H]2C[C@@H](O)CN2C(=O)[C@@H](NC(=O)CCCCCC(=O)N2CCN(CC[C@H](CSc3ccccc3)Nc3ccc(S(=O)(=O)NC(=O)c4ccc(N5CCN(CC6=C(c7ccc(Cl)cc7F)CCCCC6)CC5)cc4)cc3S(=O)(=O)C(F)(F)F)CC2)C(C)(C)C)cc1` [Compound 35, (2S,4R)-1-((S)-2-(7-(4-((R)-3-((4-(N-(4-(4-((2-(4-chloro-2-fluorophenyl)cyclohept-1-en-1-yl)methyl)piperazin-1-yl)benzoyl)sulfamoyl)-2-((trifluoromethyl)sulfonyl)phenyl)amino)-4-(phenylthio)butyl)piperazin-1-yl)-7-oxoheptanamido)-3,3-dimethylbutanoyl)-4-hydroxy-N—((S)-1-(4-(4-methylthiazol-5-yl)phenyl)ethyl)pyrrolidine-2-carboxamide], with less than 500 nM; and `O=C1CCC(N2C(=O)c3ccc(N4CC(CN5CCN(CC[C@H](CSc6ccccc6)Nc6ccc(S(=O)(=O)NC(=O)c7ccc(N8CCN(CC9=C(c%10ccc(Cl)cc%10)CCCCC9)CC8)cc7)cc6S(=O)(=O)C(F)(F)F)CC5)C4)cc3C2=O)C(=O)N1` (stereo partly drawn) [Compound 44, 4-(4-((2-(4-chlorophenyl)cyclohept-1-en-1-yl)methyl)piperazin-1-yl)-N-((4-(((2R)-4-(4-((1-(2-(2,6-dioxopiperidin-3-yl)-1,3-dioxoisoindolin-5-yl)azetidin-3-yl)methyl)piperazin-1-yl)-1-(phenylthio)butan-2-yl)amino)-3-((trifluoromethyl)sulfonyl)phenyl)sulfonyl)benzamide], with less than 500 nM; and `Cc1ncsc1-c1ccc([C@H](C)NC(=O)[C@@H]2C[C@@H](O)CN2C(=O)[C@@H](NC(=O)CCCCCC(=O)N2CC3CC2CN3CC[C@H](CSc2ccccc2)Nc2ccc(S(=O)(=O)NC(=O)c3ccc(N4CCN(CC5=C(c6ccc(Cl)cc6)CCC(C)(C)C5)CC4)cc3)cc2S(=O)(=O)C(F)(F)F)C(C)(C)C)cc1` (stereo partly drawn) [Compound 2, (2S,4R)-1-((2S)-2-(7-(5-((R)-3-((4-(N-(4-(4-((4′-chloro-4,4-dimethyl-3,4,5,6-tetrahydro-[1,1′-biphenyl]-2-yl)methyl)piperazin-1-yl)benzoyl)sulfamoyl)-2-((trifluoromethyl)sulfonyl)phenyl)amino)-4-(phenylthio)butyl)-2,5-diazabicyclo[2.2.1]heptan-2-yl)-7-oxoheptanamido)-3,3-dimethylbutanoyl)-4-hydroxy-N—((S)-1-(4-(4-methylthiazol-5-yl)phenyl)ethyl)pyrrolidine-2-carboxamide], with less than 500 nM.
Same read-out and setting: the result for `Cc1ncsc1-c1ccc([C@H](C)NC(=O)[C@@H]2C[C@@H](O)CN2C(=O)[C@@H](NC(=O)CCCCCC(=O)N2CCN(CC[C@H](CSc3ccccc3)Nc3ccc(S(=O)(=O)NC(=O)c4ccc(N5CCN(CC6=C(c7ccc(Cl)cc7)CCC(C)(C)C6)CC5)nc4)cc3S(=O)(=O)C(F)(F)F)CC2)C(C)(C)C)cc1` [Compound 7, 6-(4-((4′-chloro-4,4-dimethyl-3,4,5,6-tetrahydro-[1,1′-biphenyl]-2-yl)methyl)piperazin-1-yl)-N-((4-(((R)-4-(4-(7-(((S)-1-((2S,4R)-4-hydroxy-2-(((S)-1-(4-(4-methylthiazol-5-yl)phenyl)ethyl)carbamoyl)pyrrolidin-1-yl)-3,3-dimethyl-1-oxobutan-2-yl)amino)-7-oxoheptanoyl)piperazin-1-yl)-1-(phenylthio)butan-2-yl)amino)-3-((trifluoromethyl)sulfonyl)phenyl)sulfonyl)nicotinamide] reads less than 500 nM; that for `Cc1ncsc1-c1ccc([C@H](C)NC(=O)[C@@H]2C[C@@H](O)CN2C(=O)[C@@H](NC(=O)CCCCCCC(=O)N2C[C@H]3CN(CC[C@H](CSc4ccccc4)Nc4ccc(S(=O)(=O)NC(=O)c5ccc(N6CCN(CC7=C(c8ccc(Cl)cc8F)CCCCC7)CC6)cc5)cc4S(=O)(=O)C(F)(F)F)C[C@H]3C2)C(C)(C)C)cc1` [Compound 40, cis-(2S,4R)-1-((S)-2-(8-(5-((R)-3-((4-(N-(4-(4-((2-(4-chloro-2-fluorophenyl)cyclohept-1-en-1-yl)methyl)piperazin-1-yl)benzoyl)sulfamoyl)-2-((trifluoromethyl)sulfonyl)phenyl)amino)-4-(phenylthio)butyl)hexahydropyrrolo[3,4-c]pyrrol-2(1H)-yl)-8-oxooctanamido)-3,3-dimethylbutanoyl)-4-hydroxy-N—((S)-1-(4-(4-methylthiazol-5-yl)phenyl)ethyl)pyrrolidine-2-carboxamide], less than 500 nM.
